Holding throughout (experiment): inhibition of tumour cell growth, NCI panel, 48 h
Assay [1] relates to OVCAR-8 ovarian.
Assay [2] deals with MDA-MB-435.
For assay [3], the system named is NCI-H522 lung.
The test system of assay [4] is CAKI-1 renal.
For assay [5], the system named is BT-549 breast.
In assay [6] the test system is TK-10 renal.
The subject of assay [7] is HT29 colon.
In assay [8] the test system is SK-MEL-28 melanoma.
The subject of assay [9] is OVCAR-3 ovarian.
The subject of assay [10] is UO-31 renal.
Assay [11] concerns MALME-3M melanoma.
In assay [12] the test system is A549 NSCLC.
The test system of assay [13] is SNB-19 CNS.
The test system of assay [14] is MOLT-4 leukemia.
For assay [15], the system named is SK-OV-3 ovarian.
For assay [16], the system named is SF-268 CNS.
The subject of assay [17] is KM12 colon.
Assay [18] has as its system U251 CNS.
The test system of assay [19] is IGROV1 ovarian.

We go through 15 compounds from PubChem BioAssay (NCI).

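All cell lines were grown in 96-well plates and treated with compound for 48 hours. The concentration for 50% growth inhibition is given as GI50. TGI is the concentration that stops growth completely.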

With `C=C1C[C@@H](O)[C@@H](Br)C(C)(C)[C@]12CCC(C)(Cl)C(Br)C2` (stereo partly specified), the TGI in assay [1] is greater than 100 µM; in assay [2], greater than 71.2 µM; in assay [3], 44.1 µM; in assay [4] it was greater than 90.4 µM; in assay [5], greater than 100 µM; in assay [6] it was greater than 100 µM. Further, the TGI in [7] is greater than 100 µM; in [8], greater than 100 µM; in [9] it was 37.4 µM; in assay [10], greater than 100 µM; in [11] it was 59.4 µM; in assay [12], greater than 86 µM. Besides, the TGI in assay [13] is greater than 31.6 µM; in [14] it was greater than 100 µM; in assay [15] it was greater than 100 µM; in assay [16], greater than 77.4 µM; in assay [17], 3.8 µM; in assay [18], greater than 55.9 µM. Further, the TGI in [19] worked out at 46.4 µM. For the same compound, in assay [17], the GI50 is 0.793 µM.

For `COC(=O)c1ccc(N=NN(C)COc2ccc(C#N)cc2)cc1`, the TGI in assay [1], in [2], in [3], in assay [4], in [5] and in assay [6] was greater than 100 µM each time. For the same compound, the TGI in assay [7], in [8], in [9], in assay [10], in assay [11] and in assay [12] was greater than 100 µM in each case. Further, the TGI in assay [13], in assay [14], in assay [15], in assay [16], in assay [17] and in assay [18] was greater than 100 µM in each case. The same compound displayed a TGI in [19] greater than 100 µM.

Turning to `CC1=C2C(=O)OCC23C=COC3(C)O1` (stereo unspecified), the TGI in assay [1] was greater than 100 µM; in [2], 53.3 µM; in assay [3], 78.9 µM; in assay [4], 68.8 µM; in assay [5], greater than 100 µM; in assay [6], greater than 100 µM. The TGI in assay [7] was greater than 100 µM; in assay [8] it was 46.3 µM; in assay [9] it was 97.1 µM; in assay [10] it was greater than 100 µM; in [11] it was 74.5 µM; in assay [12] it was greater than 100 µM. Moreover, the TGI in assay [13] was greater than 100 µM; in assay [14], greater than 100 µM; in assay [15], greater than 100 µM; in assay [16], greater than 100 µM; in assay [17], 95.9 µM; in assay [18], greater than 100 µM. Moreover, in assay [19], the TGI was greater than 100 µM.

On to `O=c1[nH]c(-c2cccc(F)c2)nc2ccccc12`, for which the TGI is greater than 93.1 µM in [1]; greater than 100 µM in assay [2]; greater than 100 µM in [3]; greater than 100 µM in assay [4]; greater than 68.8 µM in assay [5]; 58.9 µM in assay [6]. The TGI in assay [7] is greater than 100 µM; in [8] it was greater than 100 µM; in assay [9], greater than 100 µM; in assay [10] it was greater than 67.9 µM; in assay [11] it was greater than 100 µM; in assay [12], greater than 100 µM. Further, the TGI in [13] is 47.2 µM; in assay [14], greater than 100 µM; in assay [15], greater than 61.3 µM; in assay [16], greater than 100 µM; in assay [17] it was greater than 100 µM; in assay [18], greater than 100 µM. Further, the TGI in [19] is greater than 100 µM.

On to `CC(=O)CCNc1ccc(-c2cc(-c3ccc(N(C)C)cc3)nc3ccc4ccccc4c23)cc1`, for which the TGI in [1], in [2], in assay [3], in assay [4], in assay [5] and in assay [6] was greater than 100 µM throughout. Further, the TGI in assay [7], in assay [8], in assay [9], in assay [10], in assay [11] and in assay [12] was greater than 100 µM in each case. Further, the TGI in assay [13], in assay [14], in [15], in assay [16], in assay [17] and in assay [18] was greater than 100 µM in each case. In [19], this compound came in with a TGI greater than 100 µM.

For `OCC1NCC(O)C(O)C1O` (stereo unspecified), the TGI in assay [1], in [2], in assay [3], in assay [4], in assay [5] and in [6] was greater than 100 µM each time. The TGI was greater than 100 µM in assay [7]; greater than 100 µM in assay [8]; greater than 100 µM in [9]; greater than 100 µM in [10]; 55.8 µM in assay [11]; greater than 100 µM in assay [12]. Besides, the TGI in assay [13], in assay [14], in assay [15], in assay [16], in assay [17] and in assay [18] was greater than 100 µM throughout. In assay [19], this compound showed a TGI greater than 100 µM.

Turning to `CC1(C)C(O)C[C@]23CCC[C@](C)(C[C@@H](O)C12)C3` (stereo partly specified), the TGI in assay [1], in assay [2], in assay [3], in assay [4], in assay [5] and in [6] was greater than 100 µM throughout. The TGI in assay [7], in assay [8], in assay [9], in assay [10], in assay [11] and in [12] was greater than 100 µM in each case. Moreover, the TGI in assay [13], in assay [14], in assay [15], in assay [16], in assay [17] and in [18] was greater than 100 µM each time. Besides, the TGI in [19] was greater than 100 µM.

With `CC(C)[Si](OC1=C(C(=O)Nc2ccccc2Cl)CCCCC1)(C(C)C)C(C)C`, the TGI in assay [1], in [2], in assay [3], in [4], in assay [5] and in assay [6] was greater than 100 µM each time. Further, the TGI in assay [7], in [8], in assay [9], in assay [10], in assay [11] and in [12] was greater than 100 µM throughout. Also, the TGI in assay [13], in [14], in assay [15], in assay [16], in assay [17] and in [18] was greater than 100 µM each time. In assay [19], this compound came in with a TGI greater than 100 µM.

Turning to `Nc1cc2c3c(cccc3c1)C(=O)N(c1ccc(OCCN3CCCCC3)cc1)C2=O`, the TGI came out at 36.4 µM in assay [1]; 55.7 µM in assay [2]; 35.2 µM in assay [3]; 32.4 µM in assay [4]; 38.4 µM in [5]; 31.3 µM in assay [6]. Moreover, the TGI in assay [7] was determined as 31.9 µM; in assay [8], 44.8 µM; in assay [9] it was 30.7 µM; in assay [10] it was 24.1 µM; in assay [11], 19.8 µM; in assay [12], 28.2 µM. For the same compound, the TGI in assay [13] was found to be 32.4 µM; in [14], 35.7 µM; in [15], 31.7 µM; in assay [16], 37.7 µM; in assay [17] it was 41.3 µM; in assay [18], 61.6 µM. This compound registered a TGI in assay [19] of 34.4 µM.

Turning to `CC1(C)C=C(/C=N/Nc2ccc([N+](=O)[O-])cc2)C(C#N)=C(O)C1(C#N)C#N`, the TGI in [1], in assay [2], in assay [3], in [4], in [5] and in [6] was greater than 100 µM in each case. The TGI in [7], in assay [8], in [9], in assay [10], in [11] and in assay [12] was greater than 100 µM each time. For the same compound, the TGI in assay [13], in [14], in assay [15], in assay [16], in assay [17] and in assay [18] was greater than 100 µM throughout. The same compound displayed a TGI in [19] greater than 100 µM.

With `O=C(NC1CCC(=O)N1C(=O)OCc1ccccc1)OCc1ccccc1` (stereo unspecified), the TGI in assay [1], in [2], in [3], in assay [4], in assay [5] and in assay [6] was greater than 100 µM throughout. In addition, the TGI in [7], in assay [8], in assay [9], in assay [10], in assay [11] and in [12] was greater than 100 µM in each case. For the same compound, the TGI in assay [13], in assay [14], in assay [15], in [16], in assay [17] and in assay [18] was greater than 100 µM in each case. Further, in assay [19], the TGI was greater than 100 µM.

Consider `Cc1cc2c(cc1Cl)SC(N/N=C(\N)c1ccc(Cl)cc1)=NS2(=O)=O`, for which the TGI in [1], in assay [2], in assay [3], in [4], in [5] and in assay [6] was greater than 100 µM in each case. In addition, the TGI in assay [7], in [8], in assay [9], in [10], in assay [11] and in assay [12] was greater than 100 µM throughout. The TGI in assay [13], in assay [14], in assay [15], in assay [16], in assay [17] and in [18] was greater than 100 µM in each case. The compound also registered a TGI in [19] greater than 100 µM.

On to `COC(=O)C1Cc2cccc(C)c2C1` (stereo unspecified), for which the TGI in assay [1], in [2], in assay [3], in assay [4], in assay [5] and in assay [6] was greater than 100 µM each time. Further, the TGI in assay [7], in [8], in assay [9], in [10], in assay [11] and in assay [12] was greater than 100 µM in each case. Also, the TGI in assay [13], in assay [14], in [15], in assay [16], in assay [17] and in assay [18] was greater than 100 µM throughout. Also, in assay [19], the TGI is greater than 100 µM.

On to `CCOC(=O)c1sc2nc(SC)nc3c2c1N=CN3c1ccccc1Cl`, for which the TGI in assay [1] is greater than 100 µM; in [2], greater than 100 µM; in assay [3], greater than 100 µM; in [4], 89.1 µM; in assay [5], greater than 100 µM; in assay [6] it was greater than 100 µM. In addition, the TGI in [7], in [8], in assay [9], in assay [10], in assay [11] and in assay [12] was greater than 100 µM each time. Besides, the TGI in assay [13], in [14], in [15], in assay [16], in [17] and in [18] was greater than 100 µM in each case. The same compound gave a TGI in [19] greater than 100 µM.

Consider `Cc1ccc2c(c1)C(=O)C(Cc1ccccc1C(=O)O)C2` (stereo unspecified), for which the TGI in assay [1], in assay [2], in assay [3], in assay [4], in assay [5] and in [6] was greater than 100 µM each time. The TGI in assay [7], in [8], in [9], in [10], in [11] and in [12] was greater than 100 µM in each case. Also, the TGI in assay [13], in assay [14], in assay [15], in [16], in assay [17] and in assay [18] was greater than 100 µM each time. In addition, the TGI in [19] was greater than 100 µM.
